According to patent US20260102347A1, “Sulfur-Containing Ionizable Lipids for the Delivery of Therapeutic Agents” (NanoVation Therapeutics Inc., priority 2022, published 2026):

Experiments:
[1] = delivery of siRNA; relative to KC2; cited from earlier work
liver = experiment: In vivo analysis in CD-1 mice: luciferase mRNA-LNP, luminescence in the liver; details: LNP 50/10/38.5/1.5 mol % ionizable lipid/DSPC/chol/PEG-DMG, N/P 6, mRNA encoding luciferase 1 mg/kg intravenous, 4 hours post-injection (FIG. 2A)
Procedure: (§1) Lipids 1 or 2 described herein, DSPC, cholesterol, and PEG-DMG, were dissolved in ethanol at the appropriate ratios to a final concentration of 10 mM total lipid. Nucleic acid (siRNA or mRNA) was dissolved in an appropriate buffer such as 25 mM sodium acetate pH 4 or sodium citrate pH 4 to a concentration necessary to achieve the appropriate amine-to-phosphate ratios. The aqueous and organic solutions were mixed using a rapid-mixing device as described in Kulkarni et al., 2018, ACS Nano, 12:4787 and Kulkarni et al., 2017, Nanoscale, 36:133347 (each incorporated herein by reference) at a flow rate ratio of 3:1 (v/v; respectively) and a total flow rate of 20 mL/min. The resultant mixture was dialyzed directly against 1000-fold volume of PBS pH 7.4. All formulations were concentrated using an Amicon™ centrifugal filter unit and analysed using the methods described below. LNP-mRNA encoding firefly luciferase were injected intravenously (tail-vein) into 6-8 week old CD-1 mice. Four hours following injection, the animals were euthanized and the liver and spleen and isolated. Tissue was homogenized in Glo Lysis buffer and a luciferase assay performed using the Steady Glo Luciferase assay kit (as per manufacturers recommendations). LNP formulations containing 50/10/38.5/1.5 mol % of ionizable lipids/DSPC/chol/PEG-DMG with a nitrogen-to-phosphorous ratio (N/P) of 6 and mRNA encoding luciferase were tested for in vivo transfection efficiency in the liver and spleen after injection to CD-1 mice. The mRNA dose was 1 mg/kg. Luminescence intensity in the liver and spleen was measured at 4 hours post-injection. The ionizable lipids were 1 and 5-32 (Table 1).

spleen = experiment: In vivo analysis in CD-1 mice: luciferase mRNA-LNP, luminescence in the spleen; details: LNP 50/10/38.5/1.5 mol % ionizable lipid/DSPC/chol/PEG-DMG, N/P 6, mRNA encoding luciferase 1 mg/kg intravenous, 4 hours post-injection (FIG. 2B)
Procedure: as §1

Compound	siRNA required, times less than KC2 [1]	luminescence intensity per mg liver compared with the MC3 benchmark (liver)	luminescence intensity per mg spleen compared with the MC3 benchmark (spleen)
CCCCC/C=C\C/C=C\CCCCCCCCC(CCCCCCCC/C=C\C/C=C\CCCCC)OC(=O)CCCN(C)C [MC3, DLin-MC3-DMA]	about 3 times		
CCCCCCCCCC(=O)OC(CCCCCC(CCCCCC(CSCCCCCC)OC(=O)CN(C)C(=O)CCCCC)N(C)CCCCO)CSCCCCCC (centres unmarked) [lipid 30, 14-((N-hexanoyl-N-methylglycyl)oxy)-1,15-bis(hexylthio)-8-((4-hydroxybutyl)(methyl)-amino)pentadecan-2-yl decanoate]		higher	higher
CCCCCCCCCC(=O)OC(CCCCCC(CCCCCC(CSCCCCCC)OC(=O)CCCCCCCCC)N(C)CCCCO)CSCCCCCC (centres unmarked) [lipid 27, 1,15-bis(Hexylthio)-8-((4-hydroxybutyl)(methyl)amino)pentadecane-2,14-diyl bis-(decanoate)]		higher	higher
CCCCCCCCC(=O)OC(CCCCCC(CCCCCC(CSCCCCCCC)OC(=O)CCCCCCCC)N(C)CCCCO)CSCCCCCCC (centres unmarked) [lipid 31, 1,15-bis(Heptylthio)-8-((4-hydroxybutyl)(methyl)amino)pentadecane-2,14-diyl dinonanoate]		higher	higher
CCCCCCCCCC(=O)OC(CCCCC(CCCCC(CSC1CCCCC1)OC(=O)CCCCCCCCC)OC(=O)CCCN(C)C)CSC1CCCCC1 (centres unmarked) [lipid 6, 1,13-bis(Cyclohexylthio)-7-((4-(dimethylamino)butanoyl)oxy)tridecane-2,12-diyl bis-(decanoate)]		higher	higher
CCCCCCCCC(=O)OC(CCCCC(CCCCC(CSCCCCCCC)OC(=O)CCCCCCCC)N(C)CCCCO)CSCCCCCCC (centres unmarked) [lipid 24, 1,13-bis(Heptylthio)-7-((4-hydroxybutyl)(methyl)amino)tridecane-2,12-diyl dinonano-ate]		higher	higher
CCCCCCSCC(CCCCCC(CCCCCC(CSCCCCCC)OC(=O)CCC1CCCCC1)OC(=O)CCCN(C)C)OC(=O)CCC1CCCCC1 (centres unmarked) [lipid 8, 8-((4-(Dimethylamino)butanoyl)oxy)-1,15-bis(hexylthio)pentadecane-2,14-diyl bis(3-cyclohexylpropanoate)]		higher	higher
CCCCCCCCC(=O)OC(CCCCCC(CCCCCC(CSC1CCCCC1)OC(=O)CCCCCCCC)OC(=O)CCCN(C)C)CSC1CCCCC1 (centres unmarked) [lipid 11, 1,15-bis(cyclohexylthio)-8-((4-(dimethylamino)butanoyl)oxy)pentadecane-2,14-diyl dinonanoate]		higher	
CCCCCCCCCC(=O)OC(CCCCCC(CCCCCC(CSCCCCCC)OC(=O)CN(C)C(=O)CCCCC)OC(=O)CCCN(C)C)CSCCCCCC (centres unmarked) [lipid 9, 8-((4-(dimethylamino)butanoyl)oxy)-14-((N-hexanoyl-N-methylglycyl)oxy)-1,15-bis-(hexylthio)pentadecan-2-yl decanoate]		higher	higher
CCCCCCCCCC(=O)OC(CCCCCC(CCCCCC(CSC1CCCCC1)OC(=O)CCCCCCCCC)OC(=O)CCCN(C)C)CSC1CCCCC1 (centres unmarked) [lipid 10, 1,15-bis(cyclohexylthio)-8-((4-(dimethylamino)butanoyl)oxy)pentadecane-2,14-diyl bis(decanoate)]		higher	
CCCCCCCCCC(=O)OC(CCCCC(CCCCC(CSCCCCC)OC(=O)CCCCCCCCC)N(C)CCCCO)CSCCCCC (centres unmarked) [lipid 22, 7-((4-Hydroxybutyl)(methyl)amino)-1,13-bis(pentylthio)tridecane-2,12-diyl bis(decano-ate)]		higher	higher
CCCCCCCCC(=O)OC(CCCCCC(CCCCCC(CSC1CCCCC1)OC(=O)CCCCCCCC)N(C)CCCCO)CSC1CCCCC1 (centres unmarked) [lipid 32, 1,15-bis(Cyclohexylthio)-8-((4-hydroxybutyl)(methyl)amino)pentadecane-2,14-diyl dinonanoate]		higher	higher
CCCCCCCCCC(=O)OC(CCCCCC(CCCCCC(CSCCCCCC)OC(=O)CCCCCCCCC)OC(=O)CCCN(C)C)CSCCCCCC (centres unmarked) [lipid 7, 8-((4-(Dimethylamino)butanoyl)oxy)-1,15-bis(hexylthio)pentadecane-2,14-diyl bis(decanoate)]		higher	higher
CCCCCCCCCC(=O)OC(CCCCCC(CCCCCC(CSCCCCC)OC(=O)CCCCCCCCC)N(C)CCCCO)CSCCCCC (centres unmarked) [lipid 26, 8-((4-hydroxybutyl)(methyl)amino)-1,15-bis(pentylthio)pentadecane-2,14-diyl bis-(decanoate)]		higher	higher
CCCCCCCCC(=O)OC(CCCCCC(CCCCCC(CSCCCCC)OC(=O)CCCCCCCC)N(C)CCCCO)CSCCCCC (centres unmarked) [lipid 25, 8-((4-hydroxybutyl)(methyl)amino)-1,15-bis(pentylthio)pentadecane-2,14-diyl dinonano-ate]		higher	higher
CCCCCCCCCC(=O)OC(CCCCC(CCCCC(CSCCCCCCC)OC(=O)CCCCCCCCC)N(C)CCCCO)CSCCCCCCC (centres unmarked) [lipid 23, 1,13-bis(Heptylthio)-7-((4-hydroxybutyl)(methyl)amino)tridecane-2,12-diyl bis(decano-ate)]		higher	higher
